This is an account of results in article PMC9305425 (Chemmedchem, 2022).

“And” between values parts separate entries of the source, which are not always exact repeats. Identical values can stand only once. Like-named read-outs stand apart in the source and are kept apart here.

In series [1] the target is T1, oxidized EcDsbA (Escherichia coli, UniProt P0AEG4). In words: biochemical. The procedure: ITC was performed using a MicroCal iTC200 instrument (GE Healthcare). […] Titrations were conducted at 25 °C using 15 consecutive injections of 2.5 μL with 180 s intervals and a stirring speed of 700 rpm. […] Every interaction was tested in triplicate and the values given represent mean and standard error of mean (SEM) from these triplicate analyses.
Isothermal Titration Calorimetry (ITC).
EcDsbA (A)/VcDsbA (B). Each experiment was conducted in triplicate; a single replicate
representative of the acquired ITC data is shown.
(1 picture or pasted object on this page, not shown here)

The conditions of series [2]: 2D [1H,1H]-NOESY; for solubility / aggregation in aqueous buffer: 298 K.
Method: Solubility test of benzimidazole 2 in aqueous buffer. 2D [1H,1H]-NOESY of
benzimidazole 2 at 4 mM in D2O NMR buffer (50 mM NaPi, 25 mM NaCl, pH 6.5; 2% D6-
Series [3] concerns the target VcDsbA. The settings on record: cited from earlier work.
The target in another series is EcDsbA. The note with it: cited from earlier work.
Series [4] has as its system VcDsbA. The settings on record: cited from earlier work. This is another data set of the same source.
The target of series [5] is T1, oxidized EcDsbA. Nature of the series: biochemical. Details: made in house; host or cells: E. coli BL21(DE3). It counts as binding.
For a further series, the target named is T2, oxidized VcDsbA (Vibrio cholerae serotype O1, UniProt P32557).
T2 construct: made in house; host or cells: E. coli BL21(DE3)
In words: biochemical. The format is binding. The settings on record: for Kd: 1H-15N HSQC titration, one-site binding model, 100 μM 15N-labeled oxidized VcDsbA, 298 K, read-out: equilibrium dissociation constant (KD); for extent of chemical shift perturbations (CSP) in 1H-15N HSQC of VcDsbA: single-point addition of compound (1 mM) to VcDsbA (100 μM), compared with other hits / analogues.

Series [6] concerns the target T3, unlabelled oxidized VcDsbA (Vibrio cholerae serotype O1, UniProt P32557).
T3 construct: made in house; host or cells: E. coli BL21(DE3)
In words: Ligand-detected 1D 19F NMR affinity estimation. The format is binding. The note with it: change in 19F chemical shift at two protein:ligand ratios, VcDsbA 10 μM. From the text:
Residues with a CSP >0.05 ppm at the highest ligand concentration tested were mapped onto the VcDsbA structure (Figure 2C, D). The residues showing the largest CSP were localized within the hydrophobic groove, adjacent to the active site (Figure 2D). […] The K D for the VcDsbA‐benzimidazole 2 interaction was also estimated using ligand‐detected 1D ^19F‐NMR (Figure 2F). The ^19F chemical shift of the CF3 group in benzimidazole 2 has a chemical shift of −60.38 ppm in the absence of protein and was perturbed upon in a concentration‐dependent fashion upon addition of VcDsbA. The change in the chemical shift of the ^19F signal at two different protein : ligand ratios was used to estimate the K D of the interaction.[20]
Affinity estimation from ligand‐detected ^19F NMR. The change in the resonance frequency of the single ^19F signal in the 1D ^19F NMR spectrum of benzimidazole 2 was used to estimate the binding affinity using equation 2.[43] (2) KD=γL1-L2/1-γ
where γ is described as ΔδF1/ΔδF2 and ΔδF1 and ΔδF2 denote the changes in chemical shift of the fluorine signal of benzimidazole 2 in the absence of VcDsbA and in presence of VcDsbA (10.0 μM) at ligand concentrations of [L]1 and [L]2, respectively.

T2 sequence (P32557 20-200): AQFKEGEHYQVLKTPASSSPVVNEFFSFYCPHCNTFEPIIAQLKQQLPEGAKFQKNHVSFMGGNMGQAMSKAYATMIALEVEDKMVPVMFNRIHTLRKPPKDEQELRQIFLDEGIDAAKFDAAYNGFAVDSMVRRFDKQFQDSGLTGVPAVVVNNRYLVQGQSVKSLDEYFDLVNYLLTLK
T1 sequence (P0AEG4 20-208): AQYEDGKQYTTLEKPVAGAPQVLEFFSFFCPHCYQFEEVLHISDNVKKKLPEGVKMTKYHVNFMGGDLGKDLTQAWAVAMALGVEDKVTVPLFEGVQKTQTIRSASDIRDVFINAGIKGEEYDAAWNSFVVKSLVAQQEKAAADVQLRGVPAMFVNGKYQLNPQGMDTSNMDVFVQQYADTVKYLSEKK
T3 sequence (P32557 20-200): as the sequence (P32557 20-200) above

As to `C[C@H](CCC(=O)NCCS(=O)(=O)O)[C@H]1CC[C@H]2[C@@H]3[C@H](O)C[C@@H]4C[C@H](O)CC[C@]4(C)[C@H]3C[C@H](O)[C@]12C` [TC, sodium taurocholate], at oxidized EcDsbA [1], the “N (stoichiometry)” value is recorded as 1. Moreover, the ΔH at oxidized EcDsbA [1] was -6.551 ± 0.273 kcal/mol. The ΔS at oxidized EcDsbA [1] was -6.11 cal/mol/deg. The Kd at oxidized EcDsbA [1] (KD) is 428 ± 44 µM; on oxidized EcDsbA [1] (association constant K), 340 µM; at VcDsbA [3], 40 ± 2.5 µM; on EcDsbA, 146 ± 7 µM; at oxidized EcDsbA [5] (KD) it was 224 µM and ~224 µM. In series [2] ([TC]set = 4 mM in D2O NMR buffer), the “solubility / aggregation in aqueous buffer” value is listed as “no aggregation”. Further, in the series with VcDsbA [4], the “VcDsbA substrate oxidation in vivo” value is recorded as “inhibit VcDsbA substrate oxidation in vivo”. Besides, in the series on VcDsbA [4], the “redox state of VcDsbA” value is recorded as “able to affect the redox state of VcDsbA”. In addition, the “effect on the oxidation state of DsbA” value on oxidized EcDsbA [5] is recorded as “no effect on the oxidation state”.

Consider `OCCCc1nc2ccc(C(F)(F)F)cc2[nH]1` [benzimidazole 1], for which, at oxidized VcDsbA, the Kd came out at 610 ± 150 µM and the “extent of chemical shift perturbations (CSP) in 1H-15N HSQC of VcDsbA” value is given as “largest chemical shift perturbations”.

On to `OCCCc1nc2c(Cl)cc(C(F)(F)F)cc2[nH]1` [benzimidazole 2], for which the Kd at oxidized VcDsbA was 446 ± 10 µM; in series [6] it was 480 µM; at oxidized EcDsbA [5], above 3500 µM. For the same molecule, on oxidized VcDsbA (ratio of HSQC-derived KD values, VcDsbA over EcDsbA), the “selectivity for VcDsbA over EcDsbA” value is reported as around 8 fold. Further, the “extent of chemical shift perturbations (CSP) in 1H-15N HSQC of VcDsbA” value at oxidized VcDsbA is given as “largest CSP”. The “solubility / aggregation in aqueous buffer” value in series [2] (4 mM in D2O NMR buffer (50 mM NaPi, 25 mM NaCl, pH 6.5; 2% D6-DMSO; 98% D2O)) is recorded as “no aggregation”. Further, the “solubility / aggregation in aqueous NMR buffer” value in series [2] (mixing time 800 ms, concentration of 2.5 mM) is “soluble and free from aggregation”.

By Kd is commonly meant the concentration at which binding is half-saturated.
